Data taken from PubChem BioAssay (NCI).
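Cultured in 96-well plates, cells were exposed to test compound for 48 hours across five concentrations. GI50: concentration for 50% inhibition of growth. TGI denotes the concentration required for complete inhibition of growth.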

Tests used:
Assay in all cases: NCI tumour cell line growth inhibition, 48 h
[1] = system: OVCAR-4 ovarian
[2] = system: NCI/ADR-RES ovarian
[3] = system: MCF7 breast
[4] = system: RXF 393 renal
[5] = system: OVCAR-5 ovarian
[6] = system: NCI-H522 lung
[7] = system: TK-10 renal
[8] = system: EKVX NSCLC
[9] = system: UACC-257 melanoma
[10] = system: IGROV1 ovarian
[11] = system: SF-539 CNS
[12] = system: SNB-75 CNS
[13] = system: SF-268 CNS
[14] = system: HCT-15 colon
[15] = system: NCI-H226 lung
[16] = system: OVCAR-3 ovarian
[17] = system: SW-620 colon
[18] = system: NCI-H23 lung
[19] = system: M14 melanoma
[20] = system: KM12 colon
[21] = system: RPMI-8226 leukemia
[22] = system: MDA-MB-435
[23] = system: HT29 colon
[24] = system: HCT-116 colon
[25] = system: HCC-2998 colon
[26] = system: SK-OV-3 ovarian
[27] = system: HOP-62 NSCLC
[28] = system: T-47D breast
[29] = system: UACC-62 melanoma
[30] = system: OVCAR-8 ovarian
[31] = system: HL-60(TB) leukemia
[32] = system: MALME-3M melanoma
[33] = system: COLO 205 colon
[34] = system: MOLT-4 leukemia
[35] = system: DU-145 prostate
[36] = system: CCRF-CEM leukemia
[37] = system: SF-295 CNS
[38] = system: NCI-H460 lung
[39] = system: SR leukemia
[40] = system: A498 renal
[41] = system: HOP-92 NSCLC
[42] = system: HS 578T breast
[43] = system: SNB-19 CNS
[44] = system: LOX IMVI melanoma
[45] = system: MDA-MB-231 breast
[46] = system: SK-MEL-2 melanoma
[47] = system: SK-MEL-5 melanoma
[48] = system: PC-3 prostate
[49] = system: SK-MEL-28 melanoma
[50] = system: SN12C renal
[51] = system: UO-31 renal
[52] = system: K-562 leukemia
[53] = system: BT-549 breast

C#C[C@@]1(O)[C@@H](CO)O[C@@H](n2cc(Br)c3c(N)ncnc32)[C@@H]1O
GI50 [1]: 366 nM | TGI [1]: > 100000 nM | GI50 [2]: 45.1 nM | TGI [2]: 1020 nM | GI50 [3]: 22.2 nM | TGI [3]: 1470 nM | GI50 [4]: 480 nM | TGI [4]: 2290 nM | GI50 [5]: 593 nM | TGI [5]: > 75300 nM | GI50 [6]: 97.8 nM | TGI [6]: 444 nM | GI50 [7]: 445 nM | TGI [7]: > 92600 nM | GI50 [8]: 198 nM | TGI [8]: 2680 nM | GI50 [9]: 4080 nM | TGI [9]: 61600 nM | GI50 [10]: 69.9 nM | TGI [10]: 485 nM | GI50 [11]: 298 nM | TGI [11]: 1530 nM | GI50 [12]: 234 nM | TGI [12]: 746 nM | GI50 [13]: 482 nM | TGI [13]: 51700 nM | GI50 [14]: 110 nM | TGI [14]: > 100000 nM | GI50 [15]: 1280 nM | TGI [15]: > 25200 nM | GI50 [16]: 215 nM | TGI [16]: 3770 nM | GI50 [17]: 48.7 nM | TGI [17]: > 100000 nM | GI50 [18]: 191 nM | TGI [18]: 2850 nM | GI50 [19]: 226 nM | TGI [19]: 13500 nM | GI50 [20]: 107 nM | TGI [20]: > 100000 nM | GI50 [21]: 128 nM | TGI [21]: 828 nM | GI50 [22]: 176 nM | TGI [22]: 10300 nM | GI50 [23]: 38 nM | TGI [23]: > 100000 nM | GI50 [24]: 27.4 nM | TGI [24]: > 100000 nM | GI50 [25]: 201 nM | TGI [25]: 809 nM | GI50 [26]: 44.1 nM | TGI [26]: 439 nM | GI50 [27]: 300 nM | TGI [27]: > 21800 nM | GI50 [28]: 17.3 nM | TGI [28]: 177 nM | GI50 [29]: 230 nM | TGI [29]: 12300 nM | GI50 [30]: 13.5 nM | TGI [30]: 1120 nM | GI50 [31]: 21.8 nM | TGI [31]: 75.7 nM | GI50 [32]: 708 nM | TGI [32]: 13100 nM | GI50 [33]: 89.1 nM | TGI [33]: 460 nM | GI50 [34]: 112 nM | GI50 [35]: 97.4 nM | TGI [35]: > 100000 nM | GI50 [36]: 200 nM | TGI [36]: > 100000 nM | GI50 [37]: 297 nM | TGI [37]: 7520 nM | GI50 [38]: 29.2 nM | TGI [38]: 901 nM | GI50 [39]: 60.8 nM | TGI [39]: > 100000 nM | GI50 [40]: 227 nM | TGI [40]: 587 nM | GI50 [41]: 218 nM | TGI [41]: 1460 nM | GI50 [42]: 644 nM | TGI [42]: > 72400 nM | GI50 [43]: 60.6 nM | GI50 [44]: 55.2 nM | TGI [44]: 249 nM | GI50 [45]: 110 nM | TGI [45]: > 100000 nM | GI50 [46]: 134 nM | TGI [46]: 571 nM | GI50 [47]: 107 nM | TGI [47]: 1940 nM | GI50 [48]: 89.3 nM | TGI [48]: > 29500 nM | GI50 [49]: 3650 nM | TGI [49]: 38100 nM | GI50 [50]: 90.7 nM | TGI [50]: > 100000 nM | GI50 [51]: 130 nM | TGI [51]: 1500 nM | GI50 [52]: 60.8 nM | TGI [52]: > 100000 nM | GI50 [53]: 186 nM | TGI [53]: 663 nM
